Reference: patent US20250288536A1, “PROTEIN PARTICLES INCLUDING AN ACTIVE AGENT AND METHODS OF MAKING AND USING THE SAME” (Dairy Mangement Inc., priority 2022, published 2025)
Like-named read-outs stand apart in the source and are kept apart here.

Tests used:
[1] = Particle size by DLS before and after ultrasonication (Example 2); conditions: after ultrasonication
[2] = Scanning electron microscopy (SEM) particle size; conditions: 1 mg/mL dispersion

Compound	colloidal dispersion stability when adjusting pH to 7 [1]	change of antioxidant activity (ABTS) with HPH treatment (0.01 mg/mL)	ABTS radical scavenging activity (concentration above 0.1 mg/mL)	particle size by SEM (dry state) ([2]; HPH sample) [nm]	particle size by SEM (dry state) ([2]; NOHPH sample) [nm]	change of antioxidant activity (ABTS) with HPH treatment (after vs before HPH)	ABTS radical scavenging activity (concentration of 0.5 mg/mL) [%]
N[C@@H](Cc1c[nH]c2ccccc12)C(=O)O [Trp, tryptophan]	remained stable	increased	around 100%	–	–	–	–
α-lactalbumin	–	–	–	~80	~40	increased	20
